In patent US20250333701A1, “COMPOSITIONS AND METHODS FOR GENERATING HEMATOPOIETIC STEM CELLS (HSCS)” (Washington University, priority 2019, published 2025):
Entries after “also recorded” stand apart in the source; their conditions may differ.

Key:
Assay type in all cases: cell-based, human
KDR+ CXCR4+ mesoderm = assay: Specification of definitive hemogenic endothelium (HE) and hematopoietic potential from isolated day 3 WNTd KDR+ CXCR4+ mesoderm; settings: for hematopoietic potential of the CD34+ HE specified: retinol (5 μM) added on day 3 to isolated KDR+ CXCR4+ mesoderm
Procedure: The hESC lines H1 and H9, and human iPSC1 were maintained on irradiated mouse embryonic fibroblasts in hESC media as described previously (Sturgeon, C. M., et al. Nat Biotechnol 32, 554-561, (2014); Thomson, J. A. et al. Science 282, 1145-1147 (1998); Dege, C. et al., J Vis Exp, (2017)). For differentiation, hPSC were cultured on Matrigel-coated plasticware (BD Biosciences, Bedford, MA) for 24 hours, followed by embryoid body (EB) generation, as described previously (Kennedy, M. et al. Cell Rep 2, 1722-1735, (2012); Dege, C. et al. J Vis Exp, (2017); Ditadi, A. et al. Methods 101, 65-72, (2016)). Briefly, hPSCs were dissociated with brief trypsin-EDTA (0.05%) treatment, followed by scraping. Embryoid body (EB) aggregates were resuspended in SFD media34 supplemented with L-glutamine (2 mM), ascorbic acid (1 mM), monothioglycerol (MTG, 4×10^−4 M; Sigma), transferrin (150 μg/mL), and BMP-4 (10 ng/mL). 24 hours later, bFGF (5 ng/mL) was added. On the second day of differentiation, ACTIVIN A, SB-431542 (6 μM), CHIR99021 (3 μM), and/or IWP2 (3 μM) were added. On the third day, EBs were changed to StemPro-34 media supplemented as above, with bFGF (5 ng/mL) and VEGF (15 ng/mL) and treated with either 10 μM of the pan-ALDH inhibitor DEAB (4-Diethylaminobenzaldehyde, Sigma #D86256; “RA-independent”) or 5 μM retinol (ROH, Sigma #R7632; “RA-dependent”). On day 6, IL-6 (10 ng/mL), IGF-1 (25 ng/mL), IL-11 (5 ng/mL), SCF (50 ng/mL), EPO (2 U/mL final) with DEAB or ROH were added. HE was FACS-isolated for terminal assays on day 8 (DEAB) or day 10 (ROH). All differentiation cultures were maintained at 37° C. All embryoid bodies and mesodermal aggregates were cultured in a 5% CO2/5% 02/90% N2 environment. All recombinant factors are human and were purchased from Biotechne. Analysis of hematopoietic colony potential via Methocult (Stem Cell Technologies) was performed as described previously (Ditadi, A. et al. Nat Cell Biol 17, 580-591, (2015); Kennedy, M. et al. Cell Rep 2, 1722-1735, (2012)).
For isolation of mesodermal populations, day 3 of differentiation WNTd KDR+ CD235a^negCXCR4+/neg and WNTi KDR+ CD235a+ cells were FACS-isolated and reaggregated at 250,000 cells/mL in day 3 media, as above. Cultures were plated in 250 μL volumes in a 24 well low-adherence culture plate, and grown overnight in a 37° C. incubator, with a 5% CO2/5% 02/90% N2 environment. As specified, RA was manipulated with either 5 μM ROH or ATRA (Sigma #R2625), or 10 μM DEAB. On day 4, an additional 1 mL of RA-supplemented day 3 media was added to reaggregates. On day 6 of differentiation, CD34+ and CD43+ cells from WNTi cultures were FACS-isolated for terminal assays. WNTd cultures were fed as normally, but without additional RA manipulation. CD34+ cells were sorted from all WNTd populations on day 8 of differentiation.
CD34+CD43^neg hemogenic endothelium was isolated by FACS and allowed to undergo the endothelial-to-hematopoietic transition as described previously (Ditadi, A. et al., Nat Cell Biol 17, 580-591, (2015); Ditadi, A. et al., Methods 101, 65-72, (2016)). Briefly, cells (CD34+CD43^neg or CD34+CD43^negCD73^negCXCR4neg cells) were aggregated overnight at a density of 2×10^5 cells/mL in StemPro-34 media supplemented with L-glutamine (2 mM), ascorbic acid (1 mM), monothioglycerol (MTG, 4×10^−4 M; Sigma-Aldrich), holo-transferrin (150 μg/mL), TPO (30 ng/mL), IL-3 (30 ng/mL), SCF (100 ng/mL), IL-6 (10 ng/mL), IL-11 (5 ng/mL), IGF-1 (25 ng/mL), EPO (2 U/mL), VEGF (5 ng/mL), bFGF (5 ng/mL), BMP4 (10 ng/mL), FLT3L (10 ng/mL), and SHH (20 ng/mL). Aggregates were spotted onto Matrigel-coated plasticware and were cultured for additional 3 or 9 days for WNTi and WNTd cultures, respectively. Cultures were maintained in a 37° C. incubator, in a 5% CO2/5% 02/90% N2 environment. Hemato-endothelial cultures were subsequently harvested by trypsinization, and assessed for hematopoietic potential by Methocult in a 37° C. incubator, in a 5% CO2/air environment. […]

[1] = test system: WNTd KDR+ CXCR4neg mesoderm; assay: Definitive hematopoietic development / HE specification from isolated day 3 WNTd KDR+ CXCR4neg mesoderm
Procedure: The hESC lines H1 and H9, and human iPSC1 were maintained on irradiated mouse embryonic fibroblasts in hESC media as described previously (Sturgeon, C. M., et al. Nat Biotechnol 32, 554-561, (2014); Thomson, J. A. et al. Science 282, 1145-1147 (1998); Dege, C. et al., J Vis Exp, (2017)). For differentiation, hPSC were cultured on Matrigel-coated plasticware (BD Biosciences, Bedford, MA) for 24 hours, followed by embryoid body (EB) generation, as described previously (Kennedy, M. et al. Cell Rep 2, 1722-1735, (2012); Dege, C. et al. J Vis Exp, (2017); Ditadi, A. et al. Methods 101, 65-72, (2016)). Briefly, hPSCs were dissociated with brief trypsin-EDTA (0.05%) treatment, followed by scraping. Embryoid body (EB) aggregates were resuspended in SFD media34 supplemented with L-glutamine (2 mM), ascorbic acid (1 mM), monothioglycerol (MTG, 4×10^−4 M; Sigma), transferrin (150 μg/mL), and BMP-4 (10 ng/mL). 24 hours later, bFGF (5 ng/mL) was added. On the second day of differentiation, ACTIVIN A, SB-431542 (6 μM), CHIR99021 (3 μM), and/or IWP2 (3 μM) were added. On the third day, EBs were changed to StemPro-34 media supplemented as above, with bFGF (5 ng/mL) and VEGF (15 ng/mL) and treated with either 10 μM of the pan-ALDH inhibitor DEAB (4-Diethylaminobenzaldehyde, Sigma #D86256; “RA-independent”) or 5 μM retinol (ROH, Sigma #R7632; “RA-dependent”). On day 6, IL-6 (10 ng/mL), IGF-1 (25 ng/mL), IL-11 (5 ng/mL), SCF (50 ng/mL), EPO (2 U/mL final) with DEAB or ROH were added. HE was FACS-isolated for terminal assays on day 8 (DEAB) or day 10 (ROH). All differentiation cultures were maintained at 37° C. […]
(§1) CD34+CD43^neg hemogenic endothelium was isolated by FACS and allowed to undergo the endothelial-to-hematopoietic transition as described previously (Ditadi, A. et al., Nat Cell Biol 17, 580-591, (2015); Ditadi, A. et al., Methods 101, 65-72, (2016)). […] Hemato-endothelial cultures were subsequently harvested by trypsinization, and assessed for hematopoietic potential by Methocult in a 37° C. incubator, in a 5% CO2/air environment. […]

WNTi CD235a+ mesoderm = assay: Extra-embryonic-like HE specification from isolated day 3 WNTi CD235a+ mesoderm
Procedure: (§2) The hESC lines H1 and H9, and human iPSC1 were maintained on irradiated mouse embryonic fibroblasts in hESC media as described previously (Sturgeon, C. M., et al. Nat Biotechnol 32, 554-561, (2014); Thomson, J. A. et al. Science 282, 1145-1147 (1998); Dege, C. et al., J Vis Exp, (2017)). For differentiation, hPSC were cultured on Matrigel-coated plasticware (BD Biosciences, Bedford, MA) for 24 hours, followed by embryoid body (EB) generation, as described previously (Kennedy, M. et al. Cell Rep 2, 1722-1735, (2012); Dege, C. et al. J Vis Exp, (2017); Ditadi, A. et al. Methods 101, 65-72, (2016)). Briefly, hPSCs were dissociated with brief trypsin-EDTA (0.05%) treatment, followed by scraping. Embryoid body (EB) aggregates were resuspended in SFD media34 supplemented with L-glutamine (2 mM), ascorbic acid (1 mM), monothioglycerol (MTG, 4×10^−4 M; Sigma), transferrin (150 μg/mL), and BMP-4 (10 ng/mL). 24 hours later, bFGF (5 ng/mL) was added. […]
as §1

HOXA genes = assay: HOXA gene expression in CXCR4+ mesoderm-derived CD34+ cells; settings: after ROH treatment of CXCR4+ mesoderm on day 3
Procedure: Total RNA was prepared for whole-transcriptome sequencing using the Clontech SMARTer kit and was sequenced using an Illumina HiSeq 2500 with 1×50 single reads. Reads were aligned to hg19 using STAR and gene counts were obtained using Subread. TMM normalization and RPKM counts were calculated using EdgeR. Gene Set Enrichment Analysis (GSEA, version 4.0.1) and the Database for Annotation, Visualization, and Integrated discovery (DAVID, version 6.8) were used for differential expression analysis. Morpheus (software.broadinstitute.org/morpheus) was used to create heatmaps and perform hierarchical clustering (one minus the Pearson correlation with average linkage). Bulk RNA-seq comparison to scRNA-seq was performed using the SingleR package (version 1.0.1)(Aran, D. et al., Nat Immunol 20, 163-172, (2019)) implemented in R (version 3.5.1). qRT-PCR was performed as previously described (Sturgeon, C. M., et al., Nat Biotechnol 32, 554-561, (2014)). Briefly, total RNA was isolated with the RNAqueous RNA Isolation Kit (Ambion), followed by reverse transcription using random hexamers and Oligo (dT) with Superscript III Reverse Transcriptase (Invitrogen). Real-time quantitative PCR was performed on a StepOnePlus thermocycle (Applied Biosystems), using Power Green SYBR mix (Invitrogen). […] Gene expression was evaluated as DeltaCt relative to control (ACTB). […]

[2] = test system: WNTd differentiation cultures; assay: Hematopoietic potential of HE from bulk WNTd differentiation cultures treated on day 3 (erythro-myeloid CFC, BFU-E globin); settings: ROH on day 3 (RAd HE) compared with DEAB (RAi HE)
Procedure: as §2, with “scraping.” for “scraping. Embryoid body (EB) aggregates were resuspended in SFD media34 supplemented with L-glutamine (2 mM), ascorbic acid (1 mM), monothioglycerol (MTG, 4×10^−4 M; Sigma), transferrin (150 μg/mL), and BMP-4 (10 ng/mL). 24 hours later, bFGF (5 ng/mL) was added.”
as §1, with “environment. The experiments were performed in triplicate and the mean (±standard deviation) of the […] calculated for each data set is reported.” for “environment.”

CC1=C(/C=C/C(C)=C/C=C/C(C)=C/C(=O)O)C(C)(C)CCC1 [ATRA, all-trans-retinoic acid]
specification of definitive HE (KDR+ CXCR4+ mesoderm; 1 nM ATRA on isolated KDR+ CXCR4+ mesoderm, day 3 of differentiation): robust specification of definitive HE
specification of HE (KDR+ CXCR4+ mesoderm; ATRA concentrations lower than 1 nM and higher than 10 nM, isolated KDR+ CXCR4+ mesoderm): failed to specify HE
effect on definitive hematopoietic development ([1]; 1-10 nM ATRA, WNTd KDR+ CXCR4neg mesoderm): no significant effect
ATRA concentration repressive to HE specification ([1]; WNTd KDR+ CXCR4neg mesoderm): > 100 nM
ATRA concentration repressive to extra-embryonic-like HE specification (WNTi CD235a+ mesoderm): > 1 nM

CCN(CC)c1ccc(C=O)cc1 [DEAB, 4-Diethylaminobenzaldehyde]
hematopoietic potential of the CD34+ population obtained (KDR+ CXCR4+ mesoderm; DEAB (ALDH inhibitor) added to KDR+ CXCR4+ mesoderm culture): completely lacked any hematopoietic potential
impact on definitive hematopoietic specification ([1]; DEAB added to KDR+ CXCR4neg mesoderm differentiation, any stage): gives rise to definitive hematopoietic progenitors; also recorded: no negative impact

CC1=C(/C=C/C(C)=C/C=C/C(C)=C/CO)C(C)(C)CCC1 [ROH, retinol]
stage at which ROH treatment results in specification of HE (KDR+ CXCR4+ mesoderm; ROH treatment on day 3, 4 or 5 of CXCR4+ mesoderm): on day 3 of differentiation, but not thereafter, resulted in the specification of HE
hematopoietic potential of the CD34+ HE specified (KDR+ CXCR4+ mesoderm): harbored definitive erythroid, myeloid, and lymphoid hematopoietic potential
hematopoietic potential of the CD34+ HE specified (KDR+ CXCR4+ mesoderm; listed as retinol): capable of erythro-myeloid-lymphoid multilineage hematopoiesis
HOXA gene expression (HOXA genes): elevated HOXA gene expression
erythro-myeloid CFC potential of the resulting HE [2]: significantly more erythro-myeloid CFC potential than RAi HE
fetal (HBG) globin expression of resultant BFU-E [2]: higher expression of fetal (HBG) globin
